How the values were obtained:
[1] = tested on: A549; assay: Cell cycle arrest in G2/M phase in A549; assay type: cell-based, human; settings: A549, 72 hr post treatment; siRNA 50 nM, BI 2536 10 nM
Experimental: FIGS. 2A-2D. Effects of siRNA against mitotic regulator PLK1 (siPLK1) on non-small-cell lung carcinoma (NSCLC) cell lines (A549 and H460). (FIG. 2A) 48-hr PLK1 mRNA knockdown (HPRT used as house-keeping gene) and (FIG. 2B) 72-hr PLK1 protein reduction at 50 nM siRNA dose. (FIG. 2C) 4-day cell viability at 30 nM siRNA dose. (FIG. 2D) Cell cycle arrest increase in G2/M phase in A549 72 hr post treatment. Antibody (cetuximab) conjugated NP was used to deliver the siPLK1 (C-siPLK1-NP) or scrambled siRNA control (C-siSCR-NP) at 50 nM siRNA BI 2536 (a PLK1 inhibitor) was used as a drug benchmark at 10 nM. Data presented as mean±SD from independent duplicates (10,000 events per sample); ****P<0.0001 vs. untreat control. Unless specified otherwise, “NP” denotes mesoporous silica nanoparticles coated with cross-linked PEI and PEG, as described in Ngamcherdtrakul et al., Advanced Functional Materials, 25(18):2646-2659, 2015 and U.S. Patent Application Publication No. 2017/0173169.

[2] = tested on: PD-L1; assay: PD-L1 surface expression of LLC-JSP cells by flow cytometry; assay type: cell-based, mouse; settings: 500 ng/ml inhibitor
Description: FIGS. 3A-3C. […] (FIG. 3A) PLK1 and PD-L1 mRNA expression in A549 (human NSCLC) at 48 hr post treatment with PLK1 siRNA (siPLK1) or scrambled siRNA (siSCR) normalized to HPRT housekeeping gene. Data presented as mean±SD from triplicates; ****P<0.0001. (FIG. 3B) PD-L1 surface expression of A549 ([…]) and LLC-JSP (a mouse NSCLC, FIG. 3C) at 72 hr post treatments assessed by flow cytometry (10,000 events per sample). Mouse siPLK1 seq. […] (SEQ ID NO: 1); Human siPLK1 seq. […] (SEQ ID NO: 2).
FIGS. 4A-4C Treatment effects of mitotic kinase inhibitors on (A) 3-day viability of LLC-JSP cells, (B) PD-L1 expression levels of surviving cells post treatment with 500 ng/ml of volasertib, alisertib, or AZD7762 as determined by flow cytometry and (C) their quantification.
FIGS. 6A-6D Nanoparticle delivery of PLK1 inhibitor volasertib (iPLK1-NP) to mouse NSCLC cells. (FIG. 6A) Schematic of synthesis of iPLK1-NP. (FIG. 6B) Hydrodynamic size of NP (with no inhibitor) and iPLK1-NP measured with Zetasizer. (FIG. 6C) Viability of LLC-JSP cells treated with volasertib (in 1% DMSO/PBS), iPLK1-NP (in PBS), or 1% DMSO/PBS for 4 days. Data presented as mean±SD from 4 independent samples; ****P<0.0001. (FIG. 6D) PD-L1 surface expression of LLC-JSP cells treated with PBS or iPLK1-NP (42 μg/ml NP, 210 ng/ml volasertib) for 3 days.
FIGS. 7A-7E. Nanoparticle for co-delivery of PLK1 inhibitor (iPLK1) and PD-L1 antibody (p-iPLK1-NP). (FIG. 7A) Schematic and (FIG. 7B) hydrodynamic size of p-iPLK1-NP containing 4 wt. % of PD-L1 antibody and 0.5 wt. % of PLK1 inhibitor. (FIG. 7C) 5-day cell viability of LLC-JSP cells treated with iPLK1-NP or p-iPLK1-NP. Data presented as mean±SD from 4 independent samples; ns—not significant. PD-L1 surface expression assessed by flow cytometry after LLC-JSP cells were incubated with various treatments as specified for (FIG. 7D) 2 hrs and (FIG. 7E) 2 days. […]
Flow cytometry: Cells (100K cells/well) were plated in 6 well plates overnight and treated with indicated treatments the next day. […] Cells were then washed with FACs buffer and analyzed with Guava (50,000 events per sample).

[3] = tested on: acute myeloid leukemia; settings: phase III; cited from earlier work
[4] = tested on: lung cancer; settings: phase II, 300 mg once every 3 weeks; cited from earlier work
[5] = tested on: LLC-JSP cells; assay: Cell viability of LLC-JSP cells (Cell Titer Glo); assay type: cell-based, mouse; settings: 4 days, dose-dependent
Experimental: (FIG. 14B) Treatment effect of ADC versus free alisertib of equivalent dose on viability of LLC-JSP cells (2-days). […] (FIG. 14C) Effect of PD-L1 on the viability of LLC-JSP cells.
Cell viability after treatments: Cells (1500/well) were plated in white flat bottom 96 well plate overnight. The following day, cells were treated with indicated treatments and media was changed 24 hr post treatment. 3-5 day post treatment, cell viability was assessed using Cell Titer Glo assay (Promega) following manufacturer's instructions. Luminescence was read with Tecan plate reader.

Row | Structure (SMILES) | cell cycle arrest in G2/M [1] | surface PD-L1 level of surviving cells [2] | primary endpoint of objective response [3] | response as monotherapy [4] | viability of LLC-JSP cells vs vehicle [5]
1 | CC[C@@H]1C(=O)N(C)c2cnc(Nc3ccc(C(=O)NC4CCN(C)CC4)cc3OC)nc2N1C1CCCC1 [B12536] | G2/M growth arrest |  |  |  | 
2 | CC[C@@H]1C(=O)N(C)c2cnc(Nc3ccc(C(=O)N[C@H]4CC[C@H](N5CCN(CC6CC6)CC5)CC4)cc3OC)nc2N1C(C)C [volasertib] |  | upregulated surface PD-L1 level | failed to meet primary endpoint of objective response | lack of response | significantly reduced cell viability
3 | COc1cc(Nc2ncc3c(n2)-c2ccc(Cl)cc2C(c2c(F)cccc2OC)=NC3)ccc1C(=O)O [alisertib] |  | upregulated surface PD-L1 level |  |  | 
4 | NC(=O)Nc1cc(-c2cccc(F)c2)sc1C(=O)N[C@H]1CCCNC1 [AZD7762] |  | upregulated surface PD-L1 level |  |  | 

Source: patent US11679082B2, “Therapeutic constructs for co-delivery of mitotic kinase inhibitor and immune checkpoint inhibitor” (Oregon Health & Science University, priority 2019, dated 2023)
